Reference: PubChem BioAssay AID1918995 (Molecular Pharmacology Branch, DTP, NCI, 2023)
Several values for one entry are separate records, joined by “and”; a condition that tells them apart may be missing. Equal entries are not always repeated. Values belong to the molecule of their own block, whether it stands above or below them.

Test system: 324938-238-R-J1-PDC complex spheroid growth, % test/control
Experiment: Anticancer human tumor 324938-238-R-J1-PDC patient-derived bladder carcinoma cell line growth inhibition [AhR]
Conditions: for viability, T/C: stronger effect = lower value
Text: Multicellular complex tumor spheroid response to aryl hydrocarbon receptor antagonists in combination with a variety of drugs and investigational agents in selected tumor cell lines
The current study was undertaken to assess response to aryl hydrocarbon receptor antagonists in combination with standard-of-care drugs and investigational agents in solid tumor complex spheroid models. Complex spheroids include a stromal component modeled by human endothelial cells (HUVEC) and fibroblasts modeled by human mesenchymal stem cells (MSCs). The concentration ranges selected for each drug and investigational agent were based upon clinically achievable concentrations if the clinical Cmax of the agent was known.
Compounds. The drugs and investigational agents: BAY 2416964 (NSC825713), GNF351 (NSC835774), CH-223191 (NSC835775), CPI-455 (NSC825282), aza-TdCyd (NSC777586), decitabine (NSC127716), belinostat (NSC758774), entinostat (NSC756642), pevonedistat (NSC761192), tazemetostat (NSC777109), talazoparib (NSC765396), olaparib (NSC753686), selinexor (NSC780203), nedisertib (M3814, NSC802822), bortezomib (NSC756655), venetoclax (NSC766270), doxorubicin (NSC123127), elimusertib (BAY189344, NSC800525), ceralasertib (AZD6738, NSC777638), TAK-243 (NSC785004), alisertib (NSC759677), etoposide (NSC141540), topotecan (NSC609699), eribulin (NSC707389), gemcitabine (NSC613327), carboplatin (NSC241240), cisplatin (NSC119875), and SN-38 (NSC673596) were obtained from the National Cancer Institute (NCI) Developmental Therapeutics Program Chemical Repository (32). The FDA-approved anticancer drug set is available from the Developmental Therapeutics Program at https://dtp.cancer.gov/organization/dscb/obtaining/available plates.htm. […] The stock solutions were prepared in dimethyl sulfoxide (DMSO, Sigma-Aldrich, St. Louis, MO, cat. D2650), except for the platinum compounds which were prepared in saline (Quality Biological, Gaithersburg, MD, cat. 114-055-101), at 800-fold the tested concentration and stored at -70 degrees C prior to their use. All drugs and investigational agents were tested over a range starting from a high concentration at or near the clinical Cmax and decreasing in half-log increments. If the clinical Cmax for an agent had not been determined, the highest concentration tested was 10 microM (Table 1).
Cell Culture. All cells were maintained in an incubator at 37 degrees C and 5% CO2 with 95% humidity. The PDC lines were cultured according to standard operating procedures established by the NCI PDMR (https://pdmr.cancer.gov). Briefly, all PDCs were thawed and cultured in Matrigel-coated flasks prepared with a working solution of 1X Ham's F-12 nutrient mix, without supplementation (Invitrogen, Waltham, MA, cat. 11765054), 100 U/mL penicillin-streptomycin (Invitrogen, cat. 15140122), and 2.5% Matrigel (Corning Inc., Corning, NY, cat. 354248) for the first three passages. All PDCs were cultured in complete DMEM/F-12 media containing advanced DMEM/F-12 (Invitrogen, cat. 12634028), 4.9% defined fetal bovine serum, heat inactivated (HyClone Laboratories Inc., Logan, UT, cat. SH30070.03HI), 389 ng/mL hydrocortisone (Sigma-Aldrich, cat. H4001), 9.7 ng/mL human EGF recombinant protein (Invitrogen, cat. PHG0313), 23.4 microg/mL adenine (Sigma-Aldrich, cat. A2786), 97.3 U/mL penicillin-streptomycin (Invitrogen, cat. 15140122), 1.9 mM L-glutamine (Invitrogen, cat. 25030081), and 9.7 microM Y-27632 dihydrochloride (Tocris Bioscience, Bristol, United Kingdom, cat. 1254). The PDCs were cultured in complete DMEM/F12 media without 10 microM Y-27632 dihydrochloride for at least two passages prior to the screen. The established cell lines NCI-H1341 and […] were cultured in DMEM/F-12, HEPES (Invitrogen, cat. 11330032), 5% defined fetal bovine serum (HyClone Laboratories Inc., cat. SH30070.03), ITS premix universal culture supplement [insulin (5 microg/mL), transferrin (5 microg/mL), and selenious acid (5 ng/mL)] […]

[1] = curve of first compound, second compound 0.1 µM
[2] = curve of first compound, second compound 0.316 µM
[3] = curve of first compound, second compound 1 µM
[4] = curve of first compound, second compound 3.16 µM
[5] = curve of first compound, second compound 10 µM
[6] = second compound 0.1 µM, first compound 0.0316 µM
[7] = second compound 0.1 µM, first compound 0.1 µM
[8] = second compound 0.1 µM, first compound 0.316 µM
[9] = second compound 0.1 µM, first compound 1 µM
[10] = second compound 0.1 µM, first compound 3.16 µM
[11] = second compound 0.1 µM, first compound 10 µM
[12] = second compound 0.316 µM, first compound 0.0316 µM
[13] = second compound 0.316 µM, first compound 0.1 µM
[14] = second compound 0.316 µM, first compound 0.316 µM
[15] = second compound 0.316 µM, first compound 1 µM
[16] = second compound 0.316 µM, first compound 3.16 µM
[17] = second compound 0.316 µM, first compound 10 µM
[18] = second compound 1 µM, first compound 0.0316 µM
[19] = second compound 1 µM, first compound 0.1 µM
[20] = second compound 1 µM, first compound 0.316 µM
[21] = second compound 1 µM, first compound 1 µM
[22] = second compound 1 µM, first compound 3.16 µM
[23] = second compound 1 µM, first compound 10 µM
[24] = second compound 3.16 µM, first compound 0.0316 µM
[25] = second compound 3.16 µM, first compound 0.1 µM
[26] = second compound 3.16 µM, first compound 0.316 µM
[27] = second compound 3.16 µM, first compound 1 µM
[28] = second compound 3.16 µM, first compound 3.16 µM
[29] = second compound 3.16 µM, first compound 10 µM
[30] = second compound 10 µM, first compound 0.0316 µM
[31] = second compound 10 µM, first compound 0.1 µM
[32] = second compound 10 µM, first compound 0.316 µM
[33] = second compound 10 µM, first compound 1 µM
[34] = second compound 10 µM, first compound 3.16 µM
[35] = second compound 10 µM, first compound 10 µM
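Further: spheroids exposed to agents for seven days before viability read.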

IC50 [1]: > 300 nM
IC50 [2]: > 300 nM
IC50 [3]: > 300 nM
IC50 [4]: 290 nM
IC50 [5]: 296 nM
Structure (SMILES): Nc1ncn(C2CC(O)C(CO)S2)c(=O)n1 (stereo unspecified) + Cc1ccccc1N=Nc1ccc(NC(=O)c2ccnn2C)c(C)c1
viability, T/C (second compound 0.1 µM, first compound 0.000949 µM): 83.2%
viability, T/C (second compound 0.1 µM, first compound 0.003 µM): 95.4%
viability, T/C (second compound 0.1 µM, first compound 0.00949 µM): 91.7%
viability, T/C (second compound 0.1 µM, first compound 0.03 µM): 78.5%
viability, T/C (second compound 0.1 µM, first compound 0.0949 µM): 72.6%
viability, T/C (second compound 0.1 µM, first compound 0.3 µM): 53.4%
viability, T/C (second compound 0.316 µM, first compound 0.000949 µM): 81.7%
viability, T/C (second compound 0.316 µM, first compound 0.003 µM): 90.2%
viability, T/C (second compound 0.316 µM, first compound 0.00949 µM): 98.3%
viability, T/C (second compound 0.316 µM, first compound 0.03 µM): 82.6%
viability, T/C (second compound 0.316 µM, first compound 0.0949 µM): 71.8%
viability, T/C (second compound 0.316 µM, first compound 0.3 µM): 54.3%
viability, T/C (second compound 1 µM, first compound 0.000949 µM): 97.1%
viability, T/C (second compound 1 µM, first compound 0.003 µM): 87.4%
viability, T/C (second compound 1 µM, first compound 0.00949 µM): 78.7%
viability, T/C (second compound 1 µM, first compound 0.03 µM): 78.7%
viability, T/C (second compound 1 µM, first compound 0.0949 µM): 65%
viability, T/C (second compound 1 µM, first compound 0.3 µM): 55.4%
viability, T/C (second compound 3.16 µM, first compound 0.000949 µM): 83.7%
viability, T/C (second compound 3.16 µM, first compound 0.003 µM): 85.4%
viability, T/C (second compound 3.16 µM, first compound 0.00949 µM): 66%
viability, T/C (second compound 3.16 µM, first compound 0.03 µM): 70.4%
viability, T/C (second compound 3.16 µM, first compound 0.0949 µM): 60.9%
viability, T/C (second compound 3.16 µM, first compound 0.3 µM): 48.5%
viability, T/C (second compound 10 µM, first compound 0.000949 µM): 81.6%
viability, T/C (second compound 10 µM, first compound 0.003 µM): 71.4%
viability, T/C (second compound 10 µM, first compound 0.00949 µM): 70.5%
viability, T/C (second compound 10 µM, first compound 0.03 µM): 68.8%
viability, T/C (second compound 10 µM, first compound 0.0949 µM): 65.8%
viability, T/C (second compound 10 µM, first compound 0.3 µM): 48.7%

IC50 (curve of compound): 2790 nM and 2980 nM and 2550 nM
Structure (SMILES): O=C(C=Cc1cccc(S(=O)(=O)Nc2ccccc2)c1)NO
viability, T/C (compound 0.0316 µM): 100% and 110% and 114%
viability, T/C (compound 0.1 µM): 92% and 98.7% and 110%
viability, T/C (compound 0.316 µM): 109% and 89.2% and 81.5%
viability, T/C (compound 1 µM): 85.5% and 66.9% and 72.5%
viability, T/C (compound 3.16 µM): 46% and 49.9% and 51.9%

IC50 [1]: 534 nM
IC50 [2]: 558 nM
IC50 [3]: 586 nM
IC50 [4]: 450 nM
IC50 [5]: 379 nM
Structure (SMILES): NS(=O)(=O)OCC1CC(n2ccc3c(NC4CCc5ccccc54)ncnc32)CC1O (stereo unspecified) + CC(CO)NC(=O)c1cc(-c2ccc(Cl)cc2)nn(-c2cnn(C)c2)c1=O
viability, T/C [6]: 90.3%
viability, T/C [7]: 96.4%
viability, T/C [8]: 66.8%
viability, T/C [9]: 31.1%
viability, T/C [10]: 25.3%
viability, T/C [11]: 28.9%
viability, T/C [12]: 88.5%
viability, T/C [13]: 101%
viability, T/C [14]: 64%
viability, T/C [15]: 37.3%
viability, T/C [16]: 21.9%
viability, T/C [17]: 27.1%
viability, T/C [18]: 77.1%
viability, T/C [19]: 82.2%
viability, T/C [20]: 64.1%
viability, T/C [21]: 38.2%
viability, T/C [22]: 22.9%
viability, T/C [23]: 29.1%
viability, T/C [24]: 69.9%
viability, T/C [25]: 67.8%
viability, T/C [26]: 55.4%
viability, T/C [27]: 37.3%
viability, T/C [28]: 27.5%
viability, T/C [29]: 26.9%
viability, T/C [30]: 61.5%
viability, T/C [31]: 58.6%
viability, T/C [32]: 51.5%
viability, T/C [33]: 40.8%
viability, T/C [34]: 29.1%
viability, T/C [35]: 30.5%

IC50 [1]: 2650 nM
IC50 [2]: 2480 nM
IC50 [3]: 2970 nM
IC50 [4]: 8510 nM
IC50 [5]: < 31.6 nM
Structure (SMILES): NS(=O)(=O)OCC1CC(n2ccc3c(NC4CCc5ccccc54)ncnc32)CC1O (stereo unspecified) + Cc1cncc(-c2nc(NCCc3c[nH]c4ccccc34)c3ncn(C(C)C)c3n2)c1
viability, T/C [6]: 122%
viability, T/C [7]: 101%
viability, T/C [8]: 93.4%
viability, T/C [9]: 71.9%
viability, T/C [10]: 42.9%
viability, T/C [11]: 25.7%
viability, T/C [12]: 99.7%
viability, T/C [13]: 104%
viability, T/C [14]: 99.9%
viability, T/C [15]: 71%
viability, T/C [16]: 46.4%
viability, T/C [17]: 32.5%
viability, T/C [18]: 82.3%
viability, T/C [19]: 95.5%
viability, T/C [20]: 95.3%
viability, T/C [21]: 97.6%
viability, T/C [22]: 47.5%
viability, T/C [23]: 29.1%
viability, T/C [24]: 80%
viability, T/C [25]: 114%
viability, T/C [26]: 140%
viability, T/C [27]: 103%
viability, T/C [28]: 64.2%
viability, T/C [29]: 47.5%
viability, T/C [30]: 7.19%
viability, T/C [31]: 15.3%
viability, T/C [32]: 19%
viability, T/C [33]: 23%
viability, T/C [34]: 14.3%
viability, T/C [35]: 7.16%
